Among the data in patent publication US7763624B2, “Substituted pyrazolo[3,4-d]pyrimidines as ACK-1 and LCK inhibitors” (Amgen Inc., priority 2005, dated 2010) are Ki and IC50 values, retold here.

Experiment [1] has as its target T1, ACK1 (Homo sapiens, UniProt Q07912).
T1 construct: a fusion of an N-terminal (His)6 Tag with amino acids 117 to 489 of ACK1; (His)6 (N); made in house; host or cells: baculovirus infected Hi-5 insect cells
Put plainly: ACK1 Enzymatic Assay (PGT/autophosphorylation ELISA). It is filed as biochemical. The method, then:
IC50 values of compounds of the invention may be assessed as follows. The ACK1 kinase assay utilizes a protein expressed in baculovirus infected Hi-5 cells (a fusion of an N-terminal (His)6 Tag with amino acids 117 to 489 of ACK1) purified by affinity chromatography on a Ni-NTA column. The substrate for the reaction is ACK1 itself (autophosphorylation) and poly-Glutamic acid-Tyrosine (PGT (4:1), Sigma catalog #PO275). The PGT is coated to Nunc 96 well plates at 80 μg/mL overnight at 4° C. The morning after coating, the plates are washed twice, and […] reaction buffer (10 mM Hepes, pH 7.6; 20 mM MgCl2; 75 mM NaCl, 0.125% TWEEN20 (polyoxyethylene sorbitan monolaurate); 1 mM DTT) with 5 μM ATP are added to each well. Test compounds are added in […] DMSO, and the reaction is started by addition of […] kinase in assay buffer. The reaction proceeds for 2 h at room temperature. Next, the plates are washed four times, and the level of tyrosine phosphorylation in a given well is quantified by standard ELISA assay utilizing a phosphotyrosine antibody (PY20, Pierce).

The test system of experiment [2] is C8 cells. Put plainly: ACK1 Cell Based Assay (survival under low serum, Cytotox One). As to conditions: read-out: ACK1 Cell-based IC50. The method, then: ACK1 Cell Based Assay The ACK1 cell based assay is designed to find inhibitors of ACK1 kinase activity which would be prime candidates for the development of anticancer drugs. […] After 20 to 24 h incubation at 37° C. and 5% CO2, cell viability is determined using the Cytotox One kit (Promega) according to the manufacturer's instructions.

Experiment [3] has as its target T2, LCK (Homo sapiens, UniProt P06239).
T2 construct: 15 μL of LCK KD GST (225-509) for a final volume of 40 μL; GST
As to the kind of experiment: LCK-Homogeneous Time Resolved Fluorescent (HTRF) Kinase Assay. The experiment is classed as biochemical. The method, then:
LCK-Homogeneous Time Resolved Fluorescent (HTRF) Kinase Assay
The LCK HTRF assay begins with LCK in the presence of ATP phosphorylating the biotinylated peptide Gastrin. The reaction incubates for 90 min. To quench the assay detection reagents are added which both stop the reaction by diluting out the enzyme and chelating the metals due to the presence of EDTA. Once the detection reagents are added the assay incubates for 30 min to allow for equilibration of the detection reagents.
Buffer conditions are as follows: 50 mM HEPES pH 7.5, 50 mM NaCl, 20 mM MgCl2, 5 mM MnCl2, 2 mM DTT, 0.05% BSA.
The assay is quenched and stopped with 160 μL of a detection reagent. Detection reagents are as follows: Buffer made of 50 mM Tris, pH 7.5, 100 mM NaCl, 3 mM EDTA, 0.05% BSA, 0.1% Tween20.
The assay plate is read in either a Discovery or a RubyStar.

Setting [4] is: ACK1-dependent C8 cells, 0.125% FCS, 20 to 24 h.

Where two headings read alike, the source gives them in different places.

T1 sequence (Q07912 117-489): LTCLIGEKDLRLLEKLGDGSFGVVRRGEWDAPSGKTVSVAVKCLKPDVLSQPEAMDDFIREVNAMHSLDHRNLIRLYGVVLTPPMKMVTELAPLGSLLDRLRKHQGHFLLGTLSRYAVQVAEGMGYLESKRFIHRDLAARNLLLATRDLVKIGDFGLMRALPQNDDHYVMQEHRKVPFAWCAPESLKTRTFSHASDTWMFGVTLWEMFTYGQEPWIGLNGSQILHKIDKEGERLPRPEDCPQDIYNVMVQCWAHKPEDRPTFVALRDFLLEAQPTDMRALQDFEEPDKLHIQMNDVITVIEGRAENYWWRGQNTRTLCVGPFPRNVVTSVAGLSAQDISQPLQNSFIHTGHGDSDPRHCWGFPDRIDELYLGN
T2 sequence (P06239 225-509): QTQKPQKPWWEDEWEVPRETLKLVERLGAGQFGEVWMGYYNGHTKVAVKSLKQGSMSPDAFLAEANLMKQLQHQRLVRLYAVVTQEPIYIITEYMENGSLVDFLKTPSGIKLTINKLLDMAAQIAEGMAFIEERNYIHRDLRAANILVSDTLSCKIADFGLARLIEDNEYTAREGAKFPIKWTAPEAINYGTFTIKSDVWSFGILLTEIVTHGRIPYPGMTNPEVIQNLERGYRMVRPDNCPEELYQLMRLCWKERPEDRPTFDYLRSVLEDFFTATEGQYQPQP

As to `Cc1cccc(C)c1Nc1nn(CC2CCOCC2)c2nc(Nc3ccc(N4CCNCC4)cc3)ncc12` [Compound 61], the inhibition constant (Ki) in experiment [1] and in experiment [3] was less than 10 nM in each case. Also, in experiment [2] (setting [4]), the IC50 is less than 10 nM.

Turning to `COCCOc1ccc(Nc2ncc3c(Nc4c(C)cccc4C)nn(CCN4CCOCC4)c3n2)cc1` [Compound 52, N^3-(2,6-Dimethyl-phenyl)-N^6-[4-(2-methoxy-ethoxy)-phenyl]-1-(2-morpholin-4-yl-ethyl)-1H-pyrazolo[3,4-d]pyrimidine-3,6-diamine], the inhibition constant (Ki) was 10 to 100 nM in experiment [1] and less than 10 nM in experiment [3]. Besides, in experiment [2] (setting [4]), the IC50 is greater than 100 nM.

In the case of `Cc1cccc(C)c1Nc1nn(CCCN2CCCC2)c2nc(Nc3ccccc3)ncc12` [Compound 41, N^3-(2,6-dimethylphenyl)-N^6-phenyl-1-(3-(pyrrolidin-1-yl)propyl)-1H-pyrazolo[3,4-d]pyrimidine-3,6-diamine], the Ki in experiment [1] was 10 to 100 nM; in experiment [3], less than 10 nM. In addition, the IC50 in experiment [2] (setting [4]) is greater than 100 nM.

Turning to `Cc1cccc(C)c1Nc1nn(CCC(O)CN2CCCC2)c2nc(Nc3ccccc3)ncc12` (centres unmarked) [Compound 45, 4-(3-(2,6-dimethylphenylamino)-6-(phenylamino)-1H-pyrazolo[3,4-d]pyrimidin-1-yl)-1-(pyrrolidin-1-yl)butan-2-ol], the Ki in experiment [1] is greater than 100 nM; in experiment [3], less than 10 nM. Further, the IC50 in experiment [2] (setting [4]) is greater than 100 nM.

Turning to “2-(3-(2,6-dimethylphenylamino)-6-(phenylamino)-1H-indazol-1-yl)-1-(piperazin-1-yl)ethanone [Compound 71]”, the Ki in experiment [1] was greater than 100 nM; in experiment [3], less than 10 nM. In addition, the IC50 in experiment [2] (setting [4]) was greater than 100 nM.

As for `COC(C)(C)CCn1nc(Nc2c(C)cc(C)cc2C)c2cnc(Nc3ccccc3)nc21` [Compound 76, 1-(3-Methoxy-3-methyl-butyl)-N^6-phenyl-N^3-(2,4,6-trimethyl-phenyl)-1H-pyrazolo[3,4-d]pyrimidine-3,6-diamine], the Ki is greater than 100 nM in experiment [1] and less than 10 nM in experiment [3]. Also, the IC50 in experiment [2] was greater than 100 nM.

For `Cc1cccc(C)c1Nc1nn(CCCN(C)C)c2nc(Nc3ccccc3)ncc12` [Compound 38, 1-(3-(Dimethylamino)propyl)-N^3-(2,6-dimethylphenyl)-N^6-phenyl-1H-pyrazolo[3,4-d]pyrimidine-3,6-diamine], the Ki was 10 to 100 nM in experiment [1] and less than 10 nM in experiment [3]. Moreover, the IC50 in experiment [2] (setting [4]) was 10 to 100 nM.

`CNc1ncc2c(Nc3c(Cl)cccc3Cl)nn(CCC(C)(C)OC)c2n1` [Compound 90, N^3-(2,6-dichlorophenyl)-1-(3-methoxy-3-methylbutyl)-N^5-methyl-1H-pyrazolo[3,4-d]pyrimidine-3,6-diamine]: in experiment [2] (setting [4]), the IC50 was greater than 100 nM.

Regarding `C=CCCn1nc(Nc2c(Cl)cccc2Cl)c2cnc(Nc3ccccc3)nc21` [Compound 87, 1-(But-3-enyl)-N^3-(2,6-dichlorophenyl)-N^6-phenyl-1H-pyrazolo[3,4-d]pyrimidine-3,6-diamine], the Ki in experiment [1] is 10 to 100 nM; in experiment [3], less than 10 nM. Also, the IC50 in experiment [2] (setting [4]) is greater than 100 nM.

For “(R)—N^3-(2,6-Dimethylphenyl)-1-(3-(2-(methoxymethyl)pyrrolidin-1-yl)propyl)-N^6-phenyl-1H-indazole-3,6-diamine [Compound 66]”, the results for the Ki in experiment [1] and in experiment [3] were greater than 100 nM and less than 10 nM, respectively. The IC50 in experiment [2] (setting [4]) is greater than 100 nM.

As to `COC(C)(C)CCn1nc(Nc2c(C)cccc2C)c2cnc(Nc3ccc(N4CCNCC4)cc3)nc21` [Compound 56, N^3-(2,6-Dimethyl-phenyl)-1-(3-methoxy-3-methylbutyl)-N^6-(4-piperazin-1-yl-phenyl)-1H-pyrazolo[3,4-d]pyrimidine-3,6-diamine], the IC50 in experiment [2] (setting [4]) was less than 10 nM. In addition, the Ki in experiment [3] was less than 10 nM.

In the case of “(R)—N^3-(2,6-Dimethylphenyl)-N^6-(4-fluorophenyl)-1-(3-(2-(methoxymethyl)pyrrolidin-1-yl)propyl)-1H-indazole-3,6-diamine [Compound 65]”, the values for the Ki in experiment [1] and in experiment [3] were greater than 100 nM and less than 10 nM, respectively. The IC50 in experiment [2] (setting [4]) is greater than 100 nM.

For the compound `CCN(CC)CCCn1nc(Nc2c(C)cccc2C)c2cnc(Nc3ccccc3)nc21` [Compound 40, 1-(3-(diethylamino)propyl)-N^3-(2,6-dimethylphenyl)-N^6-phenyl-1H-pyrazolo[3,4-d]pyrimidine-3,6-diamine], the Ki is 10 to 100 nM in experiment [1] and less than 10 nM in experiment [3]. In experiment [2] (setting [4]), the IC50 was greater than 100 nM.

As for “N^3-(2,6-dichlorophenyl)-1-(3-methoxy-3-methylbutyl)-N^6-[4-(4-methyl-piperazin-1-yl)-phenyl]-1H-indazole-3,6-diamine [Compound 80]”, the Ki in experiment [1] and in experiment [3] was less than 10 nM each time. In addition, the IC50 in experiment [2] (setting [4]) fell in the range of 10 to 100 nM.

For the compound “(R)—N^3-(2,6-Dimethylphenyl)-1-(3-(2-(methoxymethyl)pyrrolidin-1-yl)propyl)-1H-indazole-3,6-diamine [Compound 68]”, the Ki in experiment [1] was greater than 100 nM; in experiment [3], 10 to 100 nM. Also, the IC50 in experiment [2] (setting [4]) was greater than 100 nM.

As for `Cc1cccc(C)c1Nc1nn(CCC(O)CO)c2nc(Nc3ccccc3)ncc12` (centres unmarked) [Compound 34, 4-(3-(2,6-dimethylphenylamino)-6-(phenylamino)-1H-pyrazolo[3,4-d]pyrimidin-1-yl)butane-1,2-diol], the values for the Ki in experiment [1] and in experiment [3] were 10 to 100 nM and less than 10 nM, respectively. Further, the IC50 in experiment [2] (setting [4]) fell in the range of 10 to 100 nM.

Take “N^3-(2,6-dimethylphenyl)-1-(2-(4-methylpiperazin-1-yl)ethyl)-N^6-phenyl-1H-indazole-3,6-diamine [Compound 72]”: the Ki in experiment [1] is 10 to 100 nM; in experiment [3], less than 10 nM. The IC50 in experiment [2] (setting [4]) was greater than 100 nM.

As for `COC(C)(C)CCn1nc(Nc2c(Cl)cccc2Cl)c2cnc(Nc3ccc(OCCN4CCCC4)c(F)c3)nc21` [Compound 82, N^3-(2,6-Dichlorophenyl)-N^6-(3-fluoro-4-(2-(pyrrolidin-1-yl)ethoxy)phenyl)-1-(3-methoxy-3-methylbutyl)-1H-pyrazolo[3,4-d]pyrimidine-3,6-diamine], the Ki in experiment [1] and in experiment [3] was less than 10 nM throughout. The IC50 in experiment [2] was 10 to 100 nM.

`CNc1ncc2c(Nc3c(Cl)cccc3Cl)nn(CCC(C)(C)OC)c2n1` [Compound 83, N^3-(2,6-dichlorophenyl)-1-(3-methoxy-3-methylbutyl)-N^6-methyl-1H-pyrazolo[3,4-d]pyrimidine-3,6-diamine]: the Ki in experiment [1] was greater than 100 nM; in experiment [3], less than 10 nM.

Consider `COC(C)(C)CCn1nc(Nc2c(C)cc(C)cc2C)c2cnc(Nc3ccc(N4CCN(C)CC4)cc3)nc21` [Compound 77], for which the results for the Ki in experiment [1] and in experiment [3] were 10 to 100 nM and less than 10 nM, respectively. Further, the IC50 in experiment [2] lay within 10 to 100 nM.

As for `CNCCCn1nc(Nc2c(C)cccc2C)c2cnc(Nc3ccccc3)nc21` [Compound 39, N^3-(2,6-dimethylphenyl)-1-(3-(methylamino)propyl)-N^6-phenyl-1H-pyrazolo[3,4-d]pyrimidine-3,6-diamine], the values for the Ki in experiment [1] and in experiment [3] were 10 to 100 nM and less than 10 nM, respectively. The IC50 in experiment [2] (setting [4]) is greater than 100 nM.

Take `COC(C)(C)CCn1nc(Nc2c(C)cccc2C)c2ccc(Nc3ccccc3)cc21` [Compound 59]: the Ki in experiment [1] and in experiment [3] was less than 10 nM in each case. Besides, the IC50 in experiment [2] (setting [4]) was 10 to 100 nM.

Regarding `COC(C)(C)CCn1nc(Nc2ccccc2)c2cnc(Nc3ccc(N4CCN(C)CC4)cc3)nc21` [Compound 75], the Ki in experiment [1] is greater than 100 nM; in experiment [3], 10 to 100 nM. In addition, the half-maximal inhibitory concentration (IC50) in experiment [2] is greater than 100 nM.
